The supplement of paper PMC8882468
± gives the standard deviation of the averaged measurements.

What was measured:
Test in all cases: CTG-3D luminescence at 96 h relative to day-0 seeding control (ratio to day 0); higher = more growth / less cytotoxicity; PDxO 3D drug screen, 96 h, CTG-3D normalised to day-0 seeding control.
HCI-015 = system: HCI-015 (organoid from a triple-negative breast cancer xenograft)
MDA-MB-231 = system: MDA-MB-231
HCI-016 = system: HCI-016 (organoid from a triple-negative breast cancer xenograft)
HCI-012 = system: HCI-012 (organoid from a breast cancer xenograft)
HCI-005.E2 = system: HCI-005.E2 (organoid from a breast cancer xenograft with a HER2-positive history)
HCI-017.E2 = system: HCI-017.E2 (organoid from an ER-positive breast cancer xenograft)

CC(=O)O[C@H]1C(=O)[C@@]2(C)[C@H]([C@H](OC(=O)c3ccccc3)[C@]3(O)C[C@H](OC(=O)[C@H](O)[C@@H](NC(=O)c4ccccc4)c4ccccc4)C(C)=C1C3(C)C)[C@]1(OC(C)=O)CO[C@@H]1C[C@@H]2O [paclitaxel]
CTG-3D luminescence at 96 h
Settings | 12.5 pM | 0.00025 µM | 0.005 µM | 0.1 µM | 1 µM | 10 µM | 100 µM | 625 fM
HCI-012, days in culture: 143 | 1.61 | 1.85 | 0.96 | 0.518 | 0.54 | 0.829 | 0.769 | 1.71
HCI-012, days in culture: 162 | 2.5 | 2.34 | 1.11 | 0.633 | 0.571 | 1.14 | 1.16 | 2.67
HCI-012, days in culture: 201 | 1.12 | 0.271 | 0.477 | 0.241 | 0.609 | 0.237 | 1.01 | 0.564
HCI-015, days in culture: 172 | 1.71 | 0.614 | 1.22 | 0.629 | 0.689 | 0.702 | 0.612 | 1.2
HCI-015, days in culture: 191 | 1.87 | 1.47 | 1.01 | 0.626 | 0.566 | 0.463 | 0.334 | 1.82
HCI-015, days in culture: 218 | 1.85 | 1.53 | 0.801 | 0.428 | 0.505 | 0.46 | 0.39 | 1.86
HCI-016, days in culture: 153 | 1.14 | 0.515 | 0.631 | 0.561 | 0.976 | 1.08 | 0.796 | 0.781
HCI-016, days in culture: 172 | 2.25 | 1.87 | 1.29 | 0.627 | 0.505 | 0.659 | 0.505 | 1.5
HCI-016, days in culture: 190 | 1.89 | 1.42 | 0.919 | 0.359 | 0.861 | 0.704 | 0.661 | 1.05
HCI-016, days in culture: 199 | 1.64 | 1.67 | 0.633 | 0.431 | 0.495 | 0.834 | 0.484 | 1.66
HCI-017.E2, days in culture: 85 | 2.33 | 1.88 | 1.23 | 0.935 | 1.09 | 1.04 | 0.81 | 1.92

CTG-3D luminescence at 96 h
Settings | 12.5 pM | 0.00025 µM | 0.005 µM | 0.1 µM | 1 µM | 10 µM | 100 µM | 625 fM
HCI-005.E2 | 1.56 ± 0.41 | 1.54 ± 0.19 | 1.53 ± 0.45 | 1.34 ± 0.34 | 1.49 ± 0.35 | 1.85 ± 0.66 | 1.39 ± 0.33 | 1.97 ± 0.47
HCI-017.E2 | 1.06 ± 0.072 | 1.2 ± 0.14 | 1.2 ± 0.13 | 1.2 ± 0.18 | 1.17 ± 0.17 | 1.23 ± 0.068 | 1.3 ± 0.0093 | 1.35 ± 0.27
MDA-MB-231 | 3.73 ± 1.2 | 3.45 ± 1.2 | 2.71 ± 0.77 | 2.03 ± 0.52 | 2 ± 0.56 | 2.42 ± 0.61 | 1.09 ± 0.29 | 3.85 ± 1.1
